Results on 27 molecules are retold here after PubChem BioAssay AID330 (DTP/NCI, 2004).

The test system of this assay is P388 leukemia ip, CD2F1 mice, survival T/C. The assay can be described thus: NCI In Vivo Anticancer Drug Screen. Data for tumor model P388 Leukemia (intraperitoneal) in CD2F1 (CDF1) mice. The settings on record: endpoint: median survival time, higher = longer survival. The essentials:
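Mice carrying the transplanted tumor received test compound or vehicle. Survival was recorded in each group, and the value is the treated-group measurement divided by that of the vehicle-treated control group.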

The mark [1] stands for this setting: dose: 50.0 mg/kg/injection, schedule: Q01DX009 (ip), vehicle: Klucel (hydroxypropylcellulose) (HPC).
Where [2] appears, read: dose: 100.0 mg/kg/injection, schedule: Q01DX009 (ip), vehicle: Klucel (hydroxypropylcellulose) (HPC).
Where [3] appears, read: dose: 200.0 mg/kg/injection, schedule: Q01DX009 (ip), vehicle: Klucel (hydroxypropylcellulose) (HPC).
[4] abbreviates: dose: 60.0 mg/kg/injection, schedule: Q01DX005 (ip), vehicle: saline with Tween-80.
[5] abbreviates: dose: 120.0 mg/kg/injection, schedule: Q01DX005 (ip), vehicle: saline with Tween-80.
Setting [6] is: dose: 240.0 mg/kg/injection, schedule: Q01DX005 (ip), vehicle: saline with Tween-80.
[7] abbreviates: dose: 100.0 mg/kg/injection, schedule: Q01DX001 (ip), vehicle: saline with Tween-80.
[8] abbreviates: dose: 50.0 mg/kg/injection, schedule: Q01DX005 (ip), vehicle: saline with Tween-80.
[9] abbreviates: dose: 200.0 mg/kg/injection, schedule: Q01DX001 (ip), vehicle: saline with Tween-80.
Where [10] appears, read: dose: 400.0 mg/kg/injection, schedule: Q01DX001 (ip), vehicle: saline with Tween-80.
Where [11] appears, read: dose: 100.0 mg/kg/injection, schedule: Q01DX005 (ip), vehicle: saline with Tween-80.
Setting [12] is: dose: 200.0 mg/kg/injection, schedule: Q01DX005 (ip), vehicle: saline with Tween-80.
Setting [13] is: dose: 100.0 mg/kg/injection, schedule: Q01DX009 (ip), vehicle: saline with Tween-80.
Setting [14] is: dose: 200.0 mg/kg/injection, schedule: Q01DX009 (ip), vehicle: saline with Tween-80.
Where [15] appears, read: dose: 50.0 mg/kg/injection, schedule: Q01DX009 (ip), vehicle: saline with Tween-80.
Where [16] appears, read: dose: 100.0 mg/kg/injection, schedule: Q01DX001 (ip), vehicle: Klucel (hydroxypropylcellulose) (HPC).
Setting [17] is: dose: 200.0 mg/kg/injection, schedule: Q01DX001 (ip), vehicle: Klucel (hydroxypropylcellulose) (HPC).
The mark [18] stands for this setting: dose: 400.0 mg/kg/injection, schedule: Q01DX001 (ip), vehicle: Klucel (hydroxypropylcellulose) (HPC).

Several values for one entry are separate records, joined by “and”; a condition that tells them apart may be missing. Equal values may be shown once. Toxic doses and inconclusive results are not listed.

`O=c1[nH]c2ccccc2n1C1CCN(CCOc2ccccc2)CC1`: the T/C is, setting by setting: under setting [1], 95 % of control; under setting [2], 102 % of control; under setting [3], 95 % of control.
Regarding `CC1OC(=O)c2cc3ccccc3nc21` (configuration not stated), the T/C by setting is: under setting [4], 93 % of control; under setting [5], 100 % of control; under setting [6], 93 % of control.
With `CC[Si](C=C1CCCCC1)(CC)CC`, the T/C is 101 % of control under setting [1], 110 % of control under setting [2] and 109 % of control under setting [3].
Consider `COc1ccc(/C(C#N)=C\c2ccnc3ccccc23)cc1`, for which the T/C (dose: 1.56 mg/kg/injection, schedule: Q01DX009 (ip), vehicle: distilled water + Tween-80) was 103 % of control; the T/C (dose: 3.13 mg/kg/injection, schedule: Q01DX009 (ip), vehicle: distilled water + Tween-80) was 94 % of control; the T/C (dose: 6.25 mg/kg/injection, schedule: Q01DX009 (ip), vehicle: distilled water + Tween-80) is 93 % of control; the T/C (dose: 12.5 mg/kg/injection, schedule: Q01DX009 (ip), vehicle: distilled water + Tween-80) was 94 % of control; the T/C (dose: 25.0 mg/kg/injection, schedule: Q01DX009 (ip), vehicle: distilled water + Tween-80) is 91 % of control.
As to `CNc1ccc(C=C2c3ccccc3-c3ccccc32)cc1`, the T/C is 102 % of control (dose: 12.5 mg/kg/injection, schedule: Q01DX001 (ip), vehicle: saline with Tween-80); 105 % of control (dose: 25.0 mg/kg/injection, schedule: Q01DX001 (ip), vehicle: saline with Tween-80); 112 % of control (dose: 50.0 mg/kg/injection, schedule: Q01DX001 (ip), vehicle: saline with Tween-80); 106 % of control under setting [7].
As to `C=C1C(O)C2(O)OCC34C(CC5C(C)=CC(=O)C(O)C5(C)C23)OC(=O)C(OC(=O)C/C=C/CCCCCCCC)C14` (configuration not stated), the T/C reads like this: (dose: 2.0 mg/kg/injection, schedule: Q01DX005 (ip), vehicle: saline + alcohol) 151 % of control; (dose: 4.0 mg/kg/injection, schedule: Q01DX005 (ip), vehicle: saline + alcohol) 151 % of control and 156 % of control; (dose: 8.0 mg/kg/injection, schedule: Q01DX005 (ip), vehicle: saline + alcohol) 198 % of control; (dose: 16.0 mg/kg/injection, schedule: Q01DX005 (ip), vehicle: saline + alcohol) 205 % of control.
In the case of `CC1CCCN(CC(O)CN2C[C@@H](C)N(CC(O)CN3CCCC(C)C3)[C@H](C)C2)C1` (some centres not stated), the T/C was 100 % of control (dose: 12.5 mg/kg/injection, schedule: Q01DX005 (ip), vehicle: saline with Tween-80); 100 % of control (dose: 25.0 mg/kg/injection, schedule: Q01DX005 (ip), vehicle: saline with Tween-80); 100 % of control and 112 % of control under setting [8].
Consider `Cc1oc2ccccc2c(=O)c1Cn1cnc2ccc([N+](=O)[O-])cc21`, for which the T/C was 102 % of control under setting [4], 93 % of control under setting [5] and 91 % of control under setting [6].
Turning to `CCCCCCCCCCCCCCCc1c(NC(C)(CC)[P+](=O)O)c(=O)n(C)n1C` (configuration not stated), the T/C (dose: 6.25 mg/kg/injection, schedule: Q01DX009 (ip), vehicle: saline) is 112 % of control; the T/C (dose: 12.5 mg/kg/injection, schedule: Q01DX009 (ip), vehicle: saline) was 100 % of control; the T/C (dose: 100.0 mg/kg/injection, schedule: Q01DX009 (ip), vehicle: saline) was 101 % of control.
`C=C[C@@H]1C[C@@]2(C)O[C@@H]([C@@H](OCc3ccccc3)[C@@H]1OC)[C@@H](C)O2`: the T/C by setting is: under setting [7], 96 % of control; under setting [9], 104 % of control; under setting [10], 104 % of control.
Turning to `Nc1ncc2c(n1)CCCC2`, the T/C is 98 % of control under setting [8], 98 % of control under setting [11] and 100 % of control under setting [12].
In the case of `COc1cc2c(cc1O)CCCC(C)(C)C2=O`, the T/C under setting [13] is 95 % of control and the T/C under setting [14] was 96 % of control.
On to `NC(=S)n1nc(-c2ccccc2)c(N=Nc2cccc(Cl)c2Cl)c1-c1ccccc1`, for which the T/C is 89 % of control under setting [7], 94 % of control under setting [9] and 97 % of control under setting [10].
With `O=c1c2ccccc2[nH]c(=S)n1-c1cccc(C(F)(F)F)c1`, the T/C under setting [15] was 92 % of control, the T/C under setting [13] is 94 % of control and the T/C under setting [14] is 100 % of control.
In the case of `c1ccc2c(C[Se][Se]Cc3cccc4ccccc34)cccc2c1`, the T/C by setting is: under setting [2], 90 % of control; under setting [3], 90 % of control.
With `C=CCNC(=S)Nc1ccc(OC(=O)Nc2ccc(Cl)c(Cl)c2)cc1`, the T/C by setting is: (dose: 6.25 mg/kg/injection, schedule: Q01DX009 (ip), vehicle: saline with Tween-80) 102 % of control; (dose: 12.5 mg/kg/injection, schedule: Q01DX009 (ip), vehicle: saline with Tween-80) 96 % of control; (dose: 25.0 mg/kg/injection, schedule: Q01DX009 (ip), vehicle: saline with Tween-80) 104 % of control; under setting [15], 98 % of control.
For the molecule `Cn1c(Cl)c(/C=C(/NC(=O)c2ccccc2)C(=O)O)c2ccccc21`, the T/C under setting [16] is 102 % of control, the T/C under setting [17] was 93 % of control and the T/C under setting [18] is 93 % of control.
For `COC1=CC(=O)c2cc3ccc(OC)c(N)c3nc2C1=O`, the T/C is, setting by setting: under setting [16], 100 % of control; under setting [17], 102 % of control.
Regarding `CC(O)Cn1nnc2ccccc2c1=O` (configuration not stated), the T/C under setting [8] is 107 % of control, the T/C under setting [11] was 105 % of control and the T/C under setting [12] was 112 % of control.
In the case of `CN1CCCN(C)C1c1cc(Br)ccc1O`, the T/C reads like this: (dose: 6.25 mg/kg/injection, schedule: Q01DX009 (ip), vehicle: saline sonified) 95 % of control; (dose: 12.5 mg/kg/injection, schedule: Q01DX009 (ip), vehicle: saline sonified) 90 % of control; (dose: 25.0 mg/kg/injection, schedule: Q01DX009 (ip), vehicle: saline sonified) 100 % of control.
`C#CC(CC)OC(=O)c1ccc([N+](=O)[O-])cc1` (configuration not stated): the T/C is, setting by setting: under setting [1], 103 % of control; under setting [2], 103 % of control; under setting [3], 91 % of control.
As to `CCOc1ccc(N=Nc2c(O)n(-c3ccc(Br)cc3)c(=S)n(-c3ccccc3)c2=O)cc1`, the T/C under setting [7] is 107 % of control, the T/C under setting [9] is 98 % of control and the T/C under setting [10] was 100 % of control.
On to `O=[N+]([O-])c1ccc(N=C/C=C\Nc2ccc([N+](=O)[O-])cc2)cc1`, for which the T/C is 87 % of control (dose: 60.0 mg/kg/injection, schedule: Q01DX005 (ip), vehicle: Klucel (hydroxypropylcellulose) (HPC)); 93 % of control (dose: 120.0 mg/kg/injection, schedule: Q01DX005 (ip), vehicle: Klucel (hydroxypropylcellulose) (HPC)); 104 % of control (dose: 240.0 mg/kg/injection, schedule: Q01DX005 (ip), vehicle: Klucel (hydroxypropylcellulose) (HPC)).
As for `COC(=O)C(CO)NC(=O)C(Cc1cnc[nH]1)N(C(=O)OCc1ccccc1)C(=O)OCc1ccccc1` (configuration not stated), the T/C under setting [8] was 94 % of control, the T/C under setting [11] is 96 % of control and the T/C under setting [12] was 94 % of control.
As for `CCOC(=O)Cc1ccc(-c2csc(Nc3ccc(Cl)cc3)n2)cc1`, the T/C was 96 % of control (dose: 100.0 mg/kg/injection, schedule: Q04DX003 (ip), vehicle: Klucel (hydroxypropylcellulose) (HPC)); 104 % of control (dose: 200.0 mg/kg/injection, schedule: Q04DX003 (ip), vehicle: Klucel (hydroxypropylcellulose) (HPC)); 106 % of control (dose: 400.0 mg/kg/injection, schedule: Q04DX003 (ip), vehicle: Klucel (hydroxypropylcellulose) (HPC)).
For `C=C(C)c1nc(Oc2ccccc2)nc(Oc2ccccc2)n1`, the T/C is, setting by setting: under setting [17], 88 % of control; under setting [18], 89 % of control.
As for `CCOC(=O)CCN(Cc1ccccc1)CC(C)C(=O)OC` (configuration not stated), the T/C (dose: 100.0 mg/kg/injection, schedule: Q04DX003 (ip), vehicle: saline with Tween-80) is 100 % of control; the T/C (dose: 200.0 mg/kg/injection, schedule: Q04DX003 (ip), vehicle: saline with Tween-80) was 100 % of control; the T/C (dose: 400.0 mg/kg/injection, schedule: Q04DX003 (ip), vehicle: saline with Tween-80) was 100 % of control.
